Converted amounts (≈) assume the structure as drawn.
What was measured:
[1] = system: Aspergillus niger; assay: Antifungal activity against Aspergillus niger at 100 ug/disk after 48 hrs by agar disc-diffusion method; assay type: functional; details: read-out: IZ
[2] = Cytotoxicity against mink CCL64 cells upto 100 uM after 72 hrs by MTT assay in presence of 0.2% fetal bovine serum; assay type: cell-based; details: neovison vison, ccl64, 72 h
[3] = system: Curvularia lunata; assay: Antifungal activity against Curvularia lunata at 100 ug/disk after 48 hrs by agar disc-diffusion method; assay type: functional; details: read-out: IZ
[4] = system: Fusarium solani; assay: Antifungal activity against Fusarium solani at 200 ug/disk after 48 hrs by agar disc-diffusion method; assay type: functional; details: read-out: IZ
[5] = system: Klebsiella pneumoniae; assay: Antibacterial activity against Klebsiella pneumoniae at 200 ug/disk after 24 hrs by agar disc-diffusion method; assay type: functional; details: read-out: IZ
[6] = system: Curvularia lunata; assay: Antifungal activity against Curvularia lunata at 200 ug/disk after 48 hrs by agar disc-diffusion method; assay type: functional; details: read-out: IZ
[7] = system: Staphylococcus aureus; assay: Antibacterial activity against Staphylococcus aureus at 100 ug/disk after 24 hrs by agar disc-diffusion method; assay type: functional; details: read-out: IZ
[8] = system: Bacillus subtilis; assay: Antibacterial activity against Bacillus subtilis at 100 ug/disk after 24 hrs by agar disc-diffusion method; assay type: functional; details: read-out: IZ
[9] = system: A549; assay: Cytotoxicity against human A549 cells upto 100 uM after 72 hrs by MTT assay in presence of 10% fetal bovine serum; assay type: functional, cell-based
[10] = system: Bacillus subtilis; assay: Antibacterial activity against Bacillus subtilis at 200 ug/disk after 24 hrs by agar disc-diffusion method; assay type: functional; details: read-out: IZ
[11] = system: Klebsiella pneumoniae; assay: Antibacterial activity against Klebsiella pneumoniae at 100 ug/disk after 24 hrs by agar disc-diffusion method; assay type: functional; details: read-out: IZ
[12] = system: Fusarium solani; assay: Antifungal activity against Fusarium solani at 100 ug/disk after 48 hrs by agar disc-diffusion method; assay type: functional; details: read-out: IZ
[13] = system: Escherichia coli; assay: Antibacterial activity against Escherichia coli at 100 ug/disk after 24 hrs by agar disc-diffusion method; assay type: functional; details: read-out: IZ
[14] = system: Aspergillus niger; assay: Antifungal activity against Aspergillus niger at 200 ug/disk after 48 hrs by agar disc-diffusion method; assay type: functional; details: read-out: IZ
[15] = system: Staphylococcus aureus; assay: Antibacterial activity against Staphylococcus aureus at 200 ug/disk after 24 hrs by agar disc-diffusion method; assay type: functional; details: read-out: IZ
[16] = system: Escherichia coli; assay: Antibacterial activity against Escherichia coli at 200 ug/disk after 24 hrs by agar disc-diffusion method; assay type: functional; details: read-out: IZ
[17] = system: Curvularia lunata; assay: Antifungal activity against Curvularia lunata after 48 hrs by microdilution susceptibility method; assay type: functional
[18] = system: Fusarium solani; assay: Antifungal activity against Fusarium solani after 48 hrs by microdilution susceptibility method; assay type: functional
[19] = system: Aspergillus niger; assay: Antifungal activity against Aspergillus niger after 48 hrs by microdilution susceptibility method; assay type: functional

SMILES | zone of inhibition at 100 µg/disc [1] | Activity [2] | zone of inhibition at 100 µg/disc [3] | zone of inhibition at 200 µg/disc [4] | zone of inhibition at 200 µg/disc [5] | zone of inhibition at 200 µg/disc [6] | zone of inhibition at 100 µg/disc [7] | zone of inhibition at 100 µg/disc [8] | Activity [9] | zone of inhibition at 200 µg/disc [10] | zone of inhibition at 100 µg/disc [11] | zone of inhibition at 100 µg/disc [12] | zone of inhibition at 100 µg/disc [13] | zone of inhibition at 200 µg/disc [14] | zone of inhibition at 200 µg/disc [15] | zone of inhibition at 200 µg/disc [16] | MIC [17] | MIC [18] | MIC [19]
O=S(=O)(Cc1nnc(S)s1)c1c[nH]cc1S(=O)(=O)c1ccccc1 | 24 mm | Non-toxic | 28 mm | 27 mm | 21 mm | 29 mm | 18 mm | 21 mm | Not toxic | 23 mm | 17 mm | 25 mm | 16 mm | 29 mm | 20 mm | 20 mm | – | – | –
CC(=O)N1CCN(c2ccc(OCC3COC(Cn4ccnc4)(c4ccc(Cl)cc4Cl)O3)cc2)CC1 (configuration not stated) [KETOCONAZOLE] | 36 mm | – | 41 mm | 42 mm | – | 44 mm | – | – | – | – | – | 38 mm | – | 39 mm | – | – | 6.25 µg/mL (≈ 11.8 µM) | 12.5 µg/mL (≈ 23.5 µM) | 6.25 µg/mL (≈ 11.8 µM)
Cc1ccc(S(=O)(=O)c2c[nH]cc2S(=O)(=O)Cc2nnc(S)s2)cc1 | 21 mm | – | 22 mm | 27 mm | 19 mm | 24 mm | 16 mm | 17 mm | – | 19 mm | 16 mm | 25 mm | 18 mm | 24 mm | 17 mm | 20 mm | – | – | –
Cc1ccc(S(=O)(=O)c2c[nH]cc2S(=O)(=O)Cc2nnc(S)n2N)cc1 | 34 mm | – | 28 mm | 33 mm | 23 mm | 35 mm | 24 mm | 25 mm | – | 27 mm | 21 mm | 29 mm | 20 mm | 36 mm | 28 mm | 24 mm | – | – | –
O=S(=O)(Cc1nnc(S)o1)c1c[nH]cc1S(=O)(=O)c1ccc(Cl)cc1 | 15 mm | – | 17 mm | 21 mm | 13 mm | 20 mm | 14 mm | 14 mm | – | 18 mm | 11 mm | 18 mm | 10 mm | 18 mm | 17 mm | 12 mm | – | – | –
